Common to all, as to type: in vivo
For experiment [1], the system named is Lolium perenne (LOLPE). The experiment in a line: Pre-emergence herbicidal activity, glasshouse pot test. The note with it: Lolium perenne, 480 h, evaluated after 20 days, read-out: Pre-emergence activity, LOLPE (100=total damage to plant; 0=no damage to plant); for pest or weed control at 500 g/ha: rate 500 g/ha. The method, boiled down: (§1)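 Pots, sterilised standard soil; sown, then sprayed at day 1 pre-emergence. Spray: technical AI in acetone + formulation (10.6% Emulsogen EL, 42.2% NMP, 42.2% DPGME, 0.2% X-77), diluted in water. Greenhouse, optimum conditions; scored at 20 d, 0–100 scale.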

Experiment [2] deals with Setaria faberi (SETFA). The experiment is described as above. The note with it: Setaria faberi, 480 h, evaluated after 20 days, read-out: Pre-emergence activity, SETFA (100=total damage to plant; 0=no damage to plant); for pest or weed control at 500 g/ha: rate 500 g/ha. In outline: as §1
The test system of experiment [3] is Alopecurus myosuroides (ALOMY). The experiment is described as above. The note with it: Alopecurus myosuroides, 480 h, evaluated after 20 days, read-out: Pre-emergence activity, ALOMY (100=total damage to plant; 0=no damage to plant); for pest or weed control at 500 g/ha: rate 500 g/ha. The method, boiled down:
as §1

Experiment [4] relates to Digitaria sanguinalis (DIGSA). The description is as above. The note with it: Digitaria sanguinalis, 480 h, evaluated after 20 days, read-out: Pre-emergence activity, DIGSA (100=total damage to plant; 0=no damage to plant); for pest or weed control at 500 g/ha: rate 500 g/ha. In outline: as §1
For experiment [5], the system named is Echinochloa crus-galli (ECHCG). The experiment is described as above. Particulars: Echinochloa crus-galli, 480 h, evaluated after 20 days, read-out: Pre-emergence activity, ECHCG (100=total damage to plant; 0=no damage to plant); for pest or weed control at 500 g/ha: rate 500 g/ha. In outline: as §1
Experiment [6] relates to Avena fatua (AVEFA). The description is as above. Particulars: Avena fatua, 480 h, evaluated after 20 days, read-out: Pre-emergence activity, AVEFA (100=total damage to plant; 0=no damage to plant); for pest or weed control at 500 g/ha: rate 500 g/ha. In outline: as §1
Experiment [7] deals with Lolium perenne (LOLPE). The experiment in a line: Post-emergence herbicidal activity, glasshouse pot test. Particulars: Lolium perenne, evaluated after 14 or 15 days, read-out: Post-emergence activity, LOLPE (100=total damage to plant; 0=no damage to plant); for pest or weed control at 500 g/ha: rate 500 g/ha. In outline: (§2)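 Foliar application to ten-day-old pot-grown seedlings; formulation: acetone plus solvent/surfactant blend (Emulsogen EL, NMP, DPGME, X-77), diluted in water. Scoring 14/15 d post-spray, 0–100% damage.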

Experiment [8] concerns Setaria faberi (SETFA). Described as above. Particulars: Setaria faberi, evaluated after 14 or 15 days, read-out: Post-emergence activity, SETFA (100=total damage to plant; 0=no damage to plant); for pest or weed control at 500 g/ha: rate 500 g/ha. The method, boiled down:
as §2

Experiment [9] concerns Alopecurus myosuroides (ALOMY). Described as above. Particulars: Alopecurus myosuroides, evaluated after 14 or 15 days, read-out: Post-emergence activity, ALOMY (100=total damage to plant; 0=no damage to plant); for pest or weed control at 500 g/ha: rate 500 g/ha. In outline: as §2
Experiment [10] concerns Digitaria sanguinalis (DIGSA). The description is as above. Particulars: Digitaria sanguinalis, evaluated after 14 or 15 days, read-out: Post-emergence activity, DIGSA (100=total damage to plant; 0=no damage to plant); for pest or weed control at 500 g/ha: rate 500 g/ha. The method, boiled down: as §2
Experiment [11] concerns Echinochloa crus-galli (ECHCG). The experiment is described as above. Particulars: Echinochloa crus-galli, evaluated after 14 or 15 days, read-out: Post-emergence activity, ECHCG (100=total damage to plant; 0=no damage to plant); for pest or weed control at 500 g/ha: rate 500 g/ha. The method, boiled down:
as §2

Experiment [12] deals with Avena fatua (AVEFA). Described as above. Particulars: Avena fatua, evaluated after 14 or 15 days, read-out: Post-emergence activity, AVEFA (100=total damage to plant; 0=no damage to plant); for pest or weed control at 500 g/ha: rate 500 g/ha. The method, boiled down: as §2

This is an account of results in patent US8084649B2, “Herbicides” (Syngenta Crop Protection, inc., priority 2007, dated 2011).

Structures are written as SMILES.

In the case of `CCc1cc(C)cc(CC)c1C1=C(O)CC(C(C)(C)S(C)(=O)=O)CC1=O` (stereo not drawn) [Compound T19], the pest or weed control at 250 g/ha in [1] (rate 250 g/ha) is 80%; in [2] (rate 250 g/ha), 50%; in experiment [3] (rate 250 g/ha), 70%; in experiment [4] (rate 250 g/ha) it was 90%; in experiment [5] (rate 250 g/ha), 80%; in experiment [6] (rate 250 g/ha) it was 70%. Moreover, the pest or weed control at 250 g/ha in experiment [7] (rate 250 g/ha), in [8] (rate 250 g/ha), in experiment [9] (rate 250 g/ha), in experiment [10] (rate 250 g/ha), in experiment [11] (rate 250 g/ha) and in experiment [12] (rate 250 g/ha) was 80% in each case.

Regarding `CCc1cc(C)cc(CC)c1C1=C(O)CC(C(C)(C)SC)CC1=O` (stereo not drawn) [Compound T20], the pest or weed control at 500 g/ha in experiment [1], in experiment [2], in [3], in experiment [4], in [5] and in experiment [6] was 100% in each case. Further, the pest or weed control at 500 g/ha in experiment [7], in experiment [8], in experiment [9], in experiment [10], in experiment [11] and in experiment [12] was 100% in each case.

For the compound `CCc1cc(C)cc(CC)c1C1=C(O)CC(C2(SC)CC2)CC1=O` (stereo not drawn) [Compound T21], the pest or weed control at 500 g/ha in [1], in experiment [2], in [3], in experiment [4], in experiment [5] and in experiment [6] was 100% in each case. Further, the pest or weed control at 500 g/ha in experiment [7] was 90%; in [8] it was 90%; in [9] it was 90%; in experiment [10], 100%; in experiment [11], 90%; in experiment [12], 100%.

Take `CCc1cc(C)cc(CC)c1C1=C(O)CC2(CCOCC2)CC1=O` [Compound T22, 9-(2,6-diethyl-4-methylphenyl)-3-oxaspiro[5.5]undecane-8,10-dione]: the pest or weed control at 500 g/ha in experiment [1], in experiment [2], in experiment [3], in experiment [4], in experiment [5] and in experiment [6] was 100% throughout. The pest or weed control at 125 g/ha in experiment [7] (rate 125 g/ha) worked out at 90%; in experiment [8] (rate 125 g/ha), 100%; in experiment [9] (rate 125 g/ha), 100%; in [10] (rate 125 g/ha), 100%; in experiment [11] (rate 125 g/ha), 100%; in experiment [12] (rate 125 g/ha), 90%.

Turning to `CCc1cc(C)cc(CC)c1C1=C(O)CC(COCOC)CC1=O` (stereo not drawn) [Compound T23], the pest or weed control at 500 g/ha in [1] turned out to be 80%; in experiment [2] it was 70%; in [3], 80%; in [4] it was 100%; in [5], 100%; in experiment [6], 70%. The pest or weed control at 500 g/ha was found to be 90% in experiment [7]; 100% in [8]; 90% in experiment [9]; 90% in [10]; 100% in experiment [11]; 80% in experiment [12].

In the case of `CCc1cc(C)cc(CC)c1C1=C(O)CC(COCCOC)CC1=O` (stereo not drawn) [Compound T24], the pest or weed control at 500 g/ha in experiment [1] is 100%; in [2] it was 100%; in experiment [3], 100%; in experiment [4], 100%; in experiment [5] it was 100%; in experiment [6], 80%. Also, the pest or weed control at 500 g/ha in experiment [7] is 90%; in experiment [8] it was 100%; in experiment [9] it was 90%; in experiment [10] it was 90%; in experiment [11], 100%; in experiment [12] it was 80%.

As to `CCc1cc(C)cc(CC)c1C1=C(O)CC(C2(SC)CCC2)CC1=O` (stereo not drawn) [Compound T25], the pest or weed control at 500 g/ha in experiment [1], in experiment [2], in experiment [3], in experiment [4], in experiment [5] and in [6] was 100% each time. Besides, the pest or weed control at 500 g/ha in experiment [7] worked out at 90%; in [8], 100%; in [9] it was 100%; in [10], 100%; in [11], 80%; in experiment [12], 100%.

In the case of `Cc1cc(C)c(C2=C(O)CC3(CCOCC3)CC2=O)c(C)c1` [Compound T26], the pest or weed control at 500 g/ha in experiment [1] was 90%; in [2] it was 70%; in experiment [3] it was 90%; in experiment [4] it was 100%; in experiment [5] it was 100%; in [6], 20%. The pest or weed control at 500 g/ha worked out at 50% in experiment [7]; 80% in [8]; 60% in experiment [9]; 80% in experiment [10]; 100% in experiment [11]; 10% in experiment [12].
